Experimental data taken from patent publication US11957139B2, “Compositions for improving nitrogen utilization in a ruminant” (Evonik Operations GmbH, priority 2016, dated 2024).
Like-named read-outs stand apart in the source and are kept apart here.

Assays:
[1] = system: Holstein heifers
Experimental: The objective of this experiment was to evaluate the effects of ruminal versus abomasal infusion of ammonia (an equivalent source of NPN) on food intake in ruminants.
Feed intake was calculated according to the following formula: Feed intake=[amount of feed provided at the beginning of the day]−[amount of feed left intact (i.e. not eaten) after a period of 24 hours]). Results

[2] = system: Holstein heifers; test: Somatic growth after ruminal versus abomasal infusion (Example 3); assay type: in vivo; conditions: infused in the abomasum compared to equivalent amount in the rumen; at least 2 months
Source text: Heifers are individually weighed on the first day of each experimental period (i.e. day 1) and on the last day of the experimental period (i.e., after at least 2 months, such as after 6 months). […] An increase in body weight indicates an increase in somatic growth while a decrease or no change in body weight indicates a decrease in somatic growth or unchanged somatic growth, respectively.

[3] = system: lactating heifers; test: Milk production after ruminal versus abomasal infusion (Example 4); assay type: in vivo, Holstein heifers; conditions: infused in the abomasum compared to equivalent amount in the rumen
Source text: The experimental procedure and animal treatments is the same as described above for example 1, except that the Holstein heifers were lactating heifers.

[4] = system: Holstein heifers; test: Apparent fiber digestibility after ruminal versus abomasal infusion of urea; assay type: in vivo
Source text: The experiment included a four-week adaptation period to a basal diet (in this case mimicking a winter tropical diet (winter tropical climate being an Aw climate) in addition to the distinct experimental periods (i.e. one experimental period per treatment regimen listed in Table 1), each lasting fourteen days.
Each heifer was rumen-cannulated. A tube was inserted into the abomasum via the rumen cannula to bypass the rumen.
The experiment consisted of two treatment groups subjected to different treatment regimens.
After the adaptation period, the heifers were exposed to the treatment regimens (i.e. consecutively, starting with treatment 1 and followed by treatment 2) as described in Table 1 (2 weeks per treatment regimen).
Heifers were fed low quality hay twice a day (08 h 30 and 16 h 30). The heifers were allowed to eat ad libitum during both feeding events.
An amount of one kilogram of compound feed (referred to as the ‘compound feed trial’), as a meal, was given in the morning (08 h 30) through the cannula (see Table 2). The details over the compositions of hay and compound feed (‘compound feed adaptation’ and ‘compound feed trial’) are presented in Table 3 below. Animals had free access to water troughs throughout the day.
All heifers were simultaneously infused in the rumen and the abomasum. This experimental design allowed each heifer to receive every treatment (consecutively), which provided 4 replicates per treatment. The two experimental periods described in Table 1 lasted 14 days each. For each individual treatment regimen, the fourteen-day period consisted of 8 days of adaptation, 4 days for sampling, and 2 days of rest without any infusions.
Whenever the treatment solution was infused in the rumen, a placebo solution (e.g. saline solution) was infused in the abomasum and whenever the treatment solution was infused in the abomasum, a placebo solution (e.g. water) was infused in the rumen. In the present case, it was necessary to infuse a saline solution in the abomasum (as opposed to water) in order to avoid problems related to osmotic pressure due to the small volume of the abomasum. This situation requires the use of a solution, which has an osmotic pressure similar to that of blood. A physiological saline solution fulfils this requirement. […] Therefore, infusion of water is suitable for the rumen.
Each heifer was equipped with two infusion lines via the cannula bung. Specifically, the first line delivered the solution straight into the rumen; the second line passed through the rumen into the omasum, using a rubber flange as anchor, delivering the pumped solution into the abomasum (Gressley et al. (2006)).
Infusate levels and infusion rates were checked 3 times per day (at 09:00 h;16:00 h and 21:00 h). Whenever necessary, manifold tubes with different inner diameter were replaced to adjust rate or level of solution, aiming to reach 10 L (or 5 L during the first two days of the period) infused continually in 24 h. The infusion rate was set at 3.5 mL/min (5 L/d) for the first two days of adaptation in each experimental period and 6.9 mL/min (10 L/d) for the remaining days.
Samples of compound feed and hay were taken from day 09 to 12 of each experimental period. After samples were collected, a portion was used to determine dried matter content (DM) at 60° C. 72 h and the rest was stored at −20° C. in a large bag labelled with the period number and trial code.

[5] = system: Holstein heifers; test: Nitrogen intake, excretion, digestibility and retention after ruminal infusion of urea sources; assay type: in vivo
Experimental: Each heifer was rumen-cannulated.
On the first and second day of experimental period, faeces were collected during 48 h. During this period wood shaves were withdrawn from the mattresses. On day 1, before the ruminal infusion of tested articles, a baseline sample was taken directly from the rectum of each animal. From the moment of ruminal incubation, total faeces were collected for 48 hours. During collection days, faeces were well homogenized, weighted, and a sub-sample (≈200 g) taken on the following hours of the day: 0800 (only for day 2) 1100, 1500 and 1900.

[6] = system: Holstein heifers; conditions: 150 g urea equivalent infused into rumen; 0-12 h post-infusion; FIG. 18
Source text: Three non-lactating, non-pregnant Holstein heifers were used for the experiment. The Holstein heifers were on average 48±0.5 months of age and weighed on average 800 kg. Each heifer was rumen-cannulated. The experimental design was a 3×3 Latin Square, involving 3 treatments, 3 periods and 3 animals. Experimental unit is the combination animal×period, totalizing 9 experimental units.
The experiment consisted of 3 treatment regimens (i.e. treatment groups 1, 2, and 3). Specifically, each treatment group differed with respect to the NPN composition they received.
Heifers were housed in a tie-stall barn with individual water and feed troughs, rubber mattresses, and wood shaving bedding. The tie-stall was cleaned and the wood shaving replaced daily. Heifers were fed low quality hay ad libitum. Each experimental period last 4 days in which test products were infused in the rumen (day one) and samples were taken on the following 48 h.
Rumen fluid samples were taken at 0, 0.5, 1, 2, 3, 6, and 12 h post-infusion through a tube adapted to the rumen cannula.

[7] = ammonia infused into abomasum over 24 h (AA)
[8] = ammonia infused into rumen over 24 h (AR)
[9] = urea 127 g/day infused into the abomasum over 24 h (UA)
[10] = urea 127 g/day infused into the rumen once a day (UR)
[11] = during the 48 hours following N infusion into rumen

## N [ammonia]
[1]; [7]
  Feed intake, Crude Protein (Feed): 0.581 kg/day
  Feed intake, Crude Protein (Total): 0.952 kg/day
  Feed intake, Hay Dry Matter: 6.09 kg/day
  Feed intake, Neutral detergent fiber: 4.38 kg/day
  Feed intake, Organic Matter: 6.58 kg/day
  Feed intake, Total Dry Matter: 6.97 kg/day
[1]; [8]
  Feed intake, Crude Protein (Feed): 0.537 kg/day
  Feed intake, Crude Protein (Total): 0.907 kg/day
  Feed intake, Hay Dry Matter: 5.37 kg/day
  Feed intake, Neutral detergent fiber: 3.87 kg/day
  Feed intake, Organic Matter: 5.90 kg/day
  Feed intake, Total Dry Matter: 6.26 kg/day
[1]; ammonia into abomasum relative to ammonia in the rumen
  feed intake of hay and total nutrient, in words: increase in feed intake
[2]
  body weight at the end of the treatment: increased body weight
[3]
  milk production at the end of the treatment: increased milk production

## urea
[4]; [9]
  Apparent fiber digestibility, Dry matter: 51.36%
  Apparent fiber digestibility, Neutral detergent fiber: 48.27%
  Apparent fiber digestibility, Organic matter: 52.79%
[4]; [10]
  Apparent fiber digestibility, Dry matter: 49.35%
  Apparent fiber digestibility, Neutral detergent fiber: 43.75%
  Apparent fiber digestibility, Organic matter: 50.18%
[4]; urea in the abomasum compared to urea in the rumen
  apparent fiber digestibility, in words: increased
[2]
  body weight at the end of the treatment: increased body weight
[3]
  milk production at the end of the treatment: increased milk production
[5]; ((N intake − N excreted)/N intake) * 100
  N digestibility: 61.81%
[5]; Faecal N excretion + Urinary N excretion, 48 h
  Total N excretion: 228.22 g
[5]; [11]
  N excretion faeces: 119.92 g
  N excretion urine: 108.30 g
[5]; total N intake in 48 h including N infusion into rumen
  N Intake: 307.58 g
[6]
  ruminal ammonia concentration over time, in words: higher
